US12565494B2, “Inhibitors of human respiratory syncytial virus and metapneumovirus” (priority 2022, dated 2026)
Like-named read-outs stand apart in the source and are kept apart here.

How the values were obtained:
hMPV-GFP virus = assay: microbe, parasite or virus in culture; assay type: cell-based, Human Metapneumovirus; details: VERO cells, hMPV-GFP MOI=1.25, 48 hrs, GFP-expressing cells counted
Description: GFP expressing rgHMPV #3 p3 was generated in Dr. Buchholz's lab (Biacchesi S. et al., J Virol. 2007 June; 81(11): 6057-6067) and propagated in VERO cells (ATCC Cat #CCL-81) with a Multiplicity of Infection (MOI) of 0.1. Virus was harvested 4 days after infection by collecting cultured material and was freeze-thaw cycled in liquid nitrogen twice. Working virus stocks were generated from thawing frozen samples in 37° C. water bath, which were centrifuged at 218 g for 15 min at 4° C. 1/10 of 10×SPG (Biological Industries 06-3061-01-5A) were added and then mixed. The supernatant was aliquoted, frozen in liquid nitrogen, and then transferred to a −80° C. freezer for storage. Virus titer was determined by performing titration test in 96-well plates and calculate approximate virus titer using GFP event/well data.
Compound plates were prepared by dispensing compounds dissolved in DMSO into wells of a 384 well Corning 3985 polystyrene flat clear bottom optical imaging microplate (202.5 nL/well) using an ECHO acoustic dispenser. Each compound was tested in 10-point serial 3-fold dilution (typical final concentrations: 40,300 nM-2 nM). […] Continuous culture of VERO cells was maintained in complete culture media (OptiMEM supplemented with 2 mM GlutaMAX™ and 100 U/ml Penicillin-Streptomycin). To set up the assay, VERO cells were trypsinized with 0.25% Trypsin-EDTA until cells were dislodged, then cells were re-suspended with 1 mL FBS. Cells were spundown at 300 g for 5 minutes and cells were washed twice with culture media and counted using default parameters on ViCell. Cells were then diluted to 100,000 cells/mL (5,000 cells/50 μL) in complete culture media+TrypLE Select (80 μL/mL). hMPV-GFP virus was added to cells at 125,000 pfu/mL (MOI=1.25) and were mixed by gentle inversion. 10 μL/well of 100% DMSO was dispensed to CellTiter-Glo (CTG) assay Max_E controls wells. Cells were dispensed at 50 μL/well using Bravo and 50 μL filtered tips into compound plates. Plates were covered with MicroClime lids and loaded with 7.5 mL of assay media to minimize evaporation. Plates were lightly shaken for 10 minutes at room temperature and then incubated at 37° C. and 5% CO2 for 48 hrs. Following incubation, distinct GFP-expressing cells were counted using an Acumen imaging system with appropriate settings. A same-well CTG assay was performed by adding 10 μL/well reconstituted CellTiter-Glo reagent (Promega G7573) and plates were read on PerkinElmer Envision according to manufacturer's instructions. Raw data were loaded and analyzed in ActivityBase. Antiviral IC50 and cytotoxicity CC50 values were determined using a 4 parameter logistic fit based on the Levenberg-Marquardt algorithm. Model: 205-4 Parameter Logistic.

RSV-A2-GFP virus = assay: microbe, parasite or virus in culture; assay type: cell-based, Human Respiratory Syncytial Virus; details: Calu-1 cells, RSV-A2-GFP MOI=1.2, 96 hrs, GFP-expressing cells counted
Description: To set up the assay, ARF vials were thawed in a 37° C. water bath and a control compound was resuspended in assay media DMEM (Dulbecco's Modified Eagle Medium) containing 2% FBS, 100 U/ml Penicillin-Streptomycin.
GFP sequence was derived from pJTI™ R4 Dest CMV N-EmGFP pA Vector (Invitrogen) and was cloned into the intergenic sequence between wild-type RSV-A2 P and M genes using standard recombineering techniques. Recombinant RSV-A2-GFP was propagated in Hep2 cells (human cells contain HeLa marker chromosomes and were derived via HeLa contamination, ATCC CCL-23) with a Multiplicity of Infection (MOI) of 0.1. Virus was harvested 3 days after infection by collecting all culture material and then freeze-thawing the mixture for 5 minutes. Working virus stocks were generated by thawing frozen viral cultures in 37° C. water bath, which were centrifuged at 218 g for 15 min at 4° C. 1/10 of 10×SPG (Biological Industries 06-3061-01-5A) were added and then mixed. The supernatant was aliquoted, frozen in liquid nitrogen, and then transferred to a −80° C. freezer for storage. Virus titer was determined by automated plaque assay in HEp-2 cells following methods described previously (Wen Z. et al.; 2019).
Calu-1 cells were purchased from ATCC (Cat #HTB-54) and were expanded in growth media (DMEM containing 10% FBS, 100 U/ml Penicillin-Streptomycin). To make ARF, cell culture media was removed and discarded and the cell layer was briefly rinsed with PBS to remove serum. 2.5 mL of TrypLE Express solution were added and cells incubated until dislodged, to which growth media was added and the cells were resuspended by gentle pipetting. Cells were counted for concentration and viability as determined by ViCell. Cells were centrifuged at RT, 300 g for 5 minutes to pellet cells. The supernatant was gently aspirated and the pellet was flicked to loosen cells. Cells were resuspended in an appropriate volume of freezing medium (DMEM containing 10% DMSO, 10% FBS, 100 U/ml Penicillin-Streptomycin) to achieve a concentration of 5×10^6 cells/mL. 1 mL aliquots of the cell suspension were transferred to freezing vials. The vials were put into an upright container in a −80° C. freezer overnight before transferring vials to liquid nitrogen for storage
Assay ready freeze-down (ARF, generation described separately) Calu-1 cells (ATCC HTB-54) were used. Compound plates were prepared by dispensing compounds dissolved in DMSO into the wells of a 384 well Corning® 3985 plate with an ECHO acoustic dispenser and compounds were tested in 10-point serial 3-fold dilution. […] To set up the assay, ARF vial(s) were thawed in a 37° C. water bath and were then resuspended into assay media (DMEM containing 2% FBS, 100 U/ml Penicillin-Streptomycin). Cells were counted using default parameters on ViCell and diluted to 20,000 cells/mL in assay media. RSV-A2-GFP virus was added to cells at 24,000 pfu/ml (MOI=1.2) and mixed by gentle inversion. 10 μL/well of 100% DMSO was dispensed as CellTiter-Glo (CTG) assay Max_E controls wells. The cells were dispensed at 50 μL/well using Bravo with 50 μL filtered tips into compound plates. Plates were covered with MicroClime lids, loaded with 7.5 mL of assay media to minimize evaporation, and were incubated at 37° C. and 5% CO2 for 96 hrs. Following incubation, distinct, GFP-expressing cells were counted using an Acumen imaging system with appropriate settings. A same-well CTG assay was performed by adding 10 μL/well reconstituted CellTiter-Glo reagent (Promega G7573) and plates were read on PerkinElmer Envision according to manufacturer's instructions. Raw data were loaded and analyzed in ActivityBase. Antiviral IC50 and cytotoxicity CC50 values were determined using a 4 parameter logistic fit based on the Levenberg-Marquardt algorithm. Model: 205-4 Parameter Logistic.

[1] = read-out: RSV EC50, Table II Summary of Activities for hMPV
[2] = human respiratory syncytial virus, Calu-1, 96 h, read-out: RSV EC50, Table I Summary of Activities for RSV
[3] = Vero, 48 h, read-out: RSV EC50, Table II Summary of Activities for hMPV

SMILES	EC50 (RSV-A2-GFP virus; [2])	EC50 (hMPV-GFP virus; [3])	also measured
CC(O)c1nc(-c2cscn2)sc1C(=O)N1C[C@@H]2[C@H](C1)[C@H]2Oc1cc(C(C)(C)N)cc(-c2ccc(F)cc2)n1 (single isomer, unassigned; enantiomer 1) [Example 16A]	< 0.01 µM	–	EC50 (hMPV-GFP virus; [1]): 0.01 to 0.1 µM
Cn1nc(-c2cscn2)cc1C(=O)N1C[C@H]2[C@H](Oc3cc(C(C)(C)N)cc(-c4ccc(F)cc4)n3)[C@@]2(C)C1 (single isomer, unassigned; enantiomer 1) [Example 43A]	< 0.01 µM	0.01 to 0.1 µM	–
Cn1nc(-c2ncco2)cc1C(=O)N1C[C@H]2[C@H](Oc3cc(C(C)(C)N)cc(-c4ccc(F)cc4)n3)[C@@]2(C)C1 (single isomer, unassigned; enantiomer 1) [Example 44A]	< 0.01 µM	0.01 to 0.1 µM	–
Cn1nc(-c2ccon2)cc1C(=O)N1C[C@H]2[C@H](Oc3cc(C(C)(C)N)cc(-c4ccc(F)cc4)n3)[C@@]2(C)C1 (single isomer, unassigned; enantiomer 1) [Example 45A]	< 0.01 µM	> 0.1 µM	–
Cn1nc(-c2cscn2)cc1C(=O)N1C[C@H]2[C@H](Oc3cc(C(C)(C)N)cc(N4CCC(C)(C)CC4)n3)[C@@]2(C)C1 (single isomer, unassigned; enantiomer 1) [Example 46A]	< 0.01 µM	> 0.1 µM	–
Cn1nc(-c2cscn2)cc1C(=O)N1C[C@@H]2[C@H](C1)[C@H]2Oc1cc(C2(C)CCN2)cc(-c2ccc(F)cc2)n1 (single isomer, unassigned; enantiomer 1) [Example 55A]	< 0.01 µM	–	EC50 (hMPV-GFP virus; [1]): 0.01 to 0.1 µM
Cn1nc(-c2cscn2)cc1C(=O)N1C[C@@H]2[C@H](C1)[C@H]2Oc1cc(C2(C)CCCN2)cc(-c2ccc(F)cc2)n1 (single isomer, unassigned; enantiomer 1) [Example 56A]	< 0.01 µM	> 0.1 µM	–
Cn1nc(-c2cscn2)cc1C(=O)N1C[C@@H]2[C@H](C1)[C@H]2Oc1cc(C(C)(N)CO)cc(-c2ccc(F)cc2)n1 (single isomer, unassigned; enantiomer 1) [Example 57A]	< 0.01 µM	> 0.1 µM	–
Cn1nc(-c2ncco2)cc1C(=O)N1C[C@@H]2C(Oc3cc(C(C)(N)CO)cc(-c4ccc(F)cc4)n3)[C@@H]2C1 (single isomer, unassigned; enantiomer 1) [Example 58A]	–	–	EC50 (hMPV-GFP virus; Table II Summary of Activities for hMPV, read-out: RSV EC50): > 0.1 µM; EC50 (RSV-A2-GFP virus; Table I Summary of Activities for RSV, read-out: RSV EC50): < 0.01 µM
CC(N)c1cc(O[C@H]2[C@@H]3CN(C(=O)c4cc(-c5cscn5)nn4C)C[C@@H]32)nc(-c2ccc(F)cc2)c1 (single isomer, unassigned; enantiomer 1) [Example 61A]	< 0.01 µM	> 0.1 µM	–
CC(N)c1cc(O[C@H]2[C@@H]3CN(C(=O)c4cc(-c5ccon5)nn4C)C[C@@H]32)nc(-c2ccc(F)cc2)c1 (single isomer, unassigned; enantiomer 1) [Example 62A]	< 0.01 µM	> 0.1 µM	–
Cn1nc(-c2cscn2)cc1C(=O)N1C[C@@H]2[C@H](C1)[C@H]2Oc1cc(C(C)(C)N)cc(C2CCC(C)(C)CC2O)n1 (single isomer, unassigned; enantiomer 1) [Example 66A]	< 0.01 µM	> 0.1 µM	–
Cn1nc(-c2cscn2)cc1C(=O)N1C[C@@H]2[C@H]1C[C@H]2Oc1cc(C(C)(C)N)cc(-c2ccc(F)cc2)n1 (single isomer, unassigned; enantiomer 2) [Example 1]	< 0.01 µM	> 0.1 µM	–
Cn1nc(-c2ncco2)cc1C(=O)N1C[C@@H]2[C@H]1C[C@H]2Oc1cc(C(C)(C)N)cc(-c2ccc(F)cc2)n1 (single isomer, unassigned; enantiomer 2) [Example 2]	0.01 to 0.1 µM	> 0.1 µM	–
CC(O)c1nc(-c2cscn2)sc1C(=O)N1C[C@@H]2[C@H](C1)[C@H]2Oc1cc(C(C)(C)N)cc(-c2ccc(F)cc2)n1 (single isomer, unassigned; enantiomer 2) [Example 16B]	–	–	EC50 (hMPV-GFP virus; [1]): > 0.1 µM; EC50 (RSV-A2-GFP virus; read-out: RSV EC50, Table I Summary of Activities for RSV): < 0.01 µM
